Patent US20250018049A1, “COMPOUNDS FOR DEGRADING CYCLIN-DEPENDENT KINASE 2 VIA UBIQUITIN PROTEOSOME PATHWAY” (NIKANG THERAPEUTICS, INC., priority 2020, published 2025)

Experiments:
Assay type in all cases: cell-based
CDK2 [1] = molecular target: T1, CDK2 (Homo sapiens, UniProt P24941); experiment: NanoBRET CDK2 engagement assay; parameters: expressed in transfected cells; settings: OVCAR3 cells with stable CDK2-Luciferase vector, 24 hours treatment
In short: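 OVCAR3 cells stably expressing CDK2-luciferase, in Opti-MEM with 1% FBS, treated 24 h at 37° C with compound from 3 μM in ½-log steps to 0.3 nM; NanoBRET tracer present for final 2 h. Donor/acceptor emission read; engagement normalized to DMSO as 100% signal, IC50 by curve fit.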

CDK2 [2] = molecular target: T1, CDK2; experiment: Phospho-Rb HTRF measurement in OVCAR3 cells (inhibition of CDK2); parameters: High-Throughput Measurement of Cellular Endogenous CDK2; endogenous in cells; host or cells: OVCAR3; settings: pRB(S807/811) assay, 24 h compound treatment
CDK2 [3] = molecular target: T1, CDK2; experiment: CDK2 HTRF assay (cellular endogenous CDK2 level); parameters: High-Throughput Measurement of Cellular Endogenous CDK2; endogenous in cells; host or cells: OVCAR3; settings: OVCAR-3; OVCAR3 cells, 24 hours, 0.3 to 10,000 nM; read-out: max degradation of CDK2
Experimental: Effects of compounds on cellular CDK2 level can be monitored by a high-throughput HTRF assay or traditional Western Blot assay.
To determine half maximal degradation concentration (DC50) values of compounds, cellular CDK2 level was measured in 96-well format using HTRF total CDK2 cellular kit (Cat #64CDK2TPEG) from Cisbio.
On Day 1, OVCAR3 cells were seeded into 96-well tissue-culture treated plates at 20,000 cells/well in 200 μL and incubated overnight at 37° C. in CO2 atmosphere. On Day 2 cells were treated with compounds at concentration ranging from 0.3 to 10,000 nM using HP D300 digital dispenser. 24 hours after compound treatment, cell culture media was removed by flicking the plate and tapping the plate against clean paper towel. Immediately 30 μL 1× lysis buffer was supplemented from the kit and the plate was incubated at room temperature on shaker for 30 min. After homogenization by pipetting up and down, 8 μL cell lysate from 96-well cell culture plate was transferred to 384-well small volume white detection plate. 2 μL premixed detection solution was added and the plate was covered with sealer. To prepare the detection solution, d2 conjugated-CDK2 antibody and Eu-cryptate conjugated CDK2 antibody were diluted into detection buffer following manufacturer's instruction. Detection plates were incubated overnight at room temperature and read on ClarioStar (BMG Labtech) in TR-FRET mode (665 nM and 620 nM). The TR-FRET ratio (665 nM/620 nM) was plotted against the compound concentration and normalized to DMSO controls. Half maximal degradation concentration (DC50) values were calculated with a four-parameter logistic fit using GraphPad Prism (version 8; La Jolla, CA). FIG. 1 provides a dose-response curve of Compound 1 in Compound Table I in cellular CDK2 HTRF assay. IC50 in FIG. 1 is the same as DC50. Compounds 1, 13, 16, 22, 23, 28, 34, 35, 36, 37, 38, 39, 42, 48, 50, 51, 53, 54, 55, 56, 57, 58, 59, 60, 61, 62, 63, 65, 66, 68, 69, 70 were tested and max degradation of CDK2 observed was from about 35% to about 90%.

| Structure (SMILES) | IC50 (CDK2 [1]) [nM] | IC50 (CDK2 [2]) [nM] | Dmax (CDK2 [3]) [%] |
| --- | --- | --- | --- |
| Cn1c(=O)n(C2CCC(=O)NC2=O)c2cccc(C#CCOC3CCN(CC4CCN(S(=O)(=O)N5CCC(Nc6ncc7ccc(=O)n(C8CCCC8)c7n6)CC5)CC4)CC3)c21 (stereo not drawn) [Compound 13, 3-(4-(3-((1-((1-((4-((8-cyclopentyl-7-oxo-7,8-dihydropyrido[2,3-d]pyrimidin-2-yl)amino)-piperidin-1-yl)sulfonyl)piperidin-4-yl)methyl)-piperidin-4-yl)oxy)prop-1-yn-1-yl)-3-methyl-2-oxo-2,3-dihydro-1H-benzo[d]imidazol-1-yl)-piperidine-2,6-dione] | 292 | 2120 | 35 to 90 |
| O=C1CCC(N2Cc3cc(N4CCN(Cc5cccc(S(=O)(=O)N6CCC(Nc7ncc8ccc(=O)n(C9CCCC9)c8n7)CC6)c5)CC4)ccc3C2=O)C(=O)N1 (stereo not drawn) [Compound 50, 3-(5-(4-(3-((4-((8-cyclopentyl-7-oxo-7,8-dihydropyrido[2,3-d]pyrimidin-2-yl)-amino)-piperidin-1-yl)sulfonyl)benzyl)-piperazin-1-yl)-1-oxoisoindolin-2-yl)piperidine-2,6-dione] | 289 | 49 | 35 to 90 |
| O=C1CCC(N2Cc3cc(C4CCN(CC5CCN(c6cccc(S(=O)(=O)N7CCC(Nc8ncc9ccc(=O)n(C%10CCCC%10)c9n8)CC7)c6)CC5)CC4)ccc3C2=O)C(=O)N1 (stereo not drawn) [Compound 35, 3-(5-(1-((1-(3-((4-((8-cyclopentyl-7-oxo-7,8-dihydropyrido[2,3-d]pyrimidin-2-yl)amino)-piperidin-1-yl)sulfonyl)phenyl)piperidin-4-yl)-methyl)piperidin-4-yl)-1-oxoisoindolin-2-yl)piperidine-2,6-dione] | 139 | 71100 | 35 to 90 |
| Cn1c(=O)n(C2CCC(=O)NC2=O)c2cccc(CCCOC3CCN(S(=O)(=O)N4CCC(Nc5ncc6ccc(=O)n(C7CCCC7)c6n5)CC4)CC3)c21 (stereo not drawn) [Compound 16, 3-(4-(3-((1-((4-((8-cyclopentyl-7-oxo-7,8-dihydropyrido[2,3-d]pyrimidin-2-yl)amino)-piperidin-1-yl)sulfonyl)piperidin-4-yl)oxy)propyl)-3-methyl-2-oxo-2,3-dihydro-1H-benzo[d]-imidazol-1-yl)piperidine-2,6-dione] | 320 | 495 | 35 to 90 |
| O=C1CCC(N2Cc3cc(C4CN(Cc5cccc(S(=O)(=O)N6CCC(Nc7ncc8ccc(=O)n(C9CCCC9)c8n7)CC6)c5)C4)ccc3C2=O)C(=O)N1 (stereo not drawn) [Compound 37, 3-(5-(1-(3-((4-((8-cyclopentyl-7-oxo-7,8-dihydropyrido[2,3-d]pyrimidin-2-yl)amino)-piperidin-1-yl)sulfonyl)benzyl)azetidin-3-yl)-1-oxoisoindolin-2-yl)piperidine-2,6-dione] | 190 | 25.7 | 35 to 90 |
| O=C1CCC(N2Cc3cc(N4CCN(Cc5cccc(S(=O)(=O)N6CCC(Nc7ncc8ccc(=O)n(C9CCCC9)c8n7)CC6)c5)CC4)c(F)cc3C2=O)C(=O)N1 (stereo not drawn) [Compound 42, 3-(5-(4-(3-((4-((8-cyclopentyl-7-oxo-7,8-dihydropyrido[2,3-d]pyrimidin-2-yl)amino)-piperidin-1-yl)sulfonyl)benzyl)piperazin-1-yl)-6-fluoro-1-oxoisoindolin-2-yl)piperidine-2,6-dione] | 297 | 24.7 | 35 to 90 |

Continued, values first:

| IC50 (CDK2 [1]) [nM] | IC50 (CDK2 [2]) [nM] | Dmax (CDK2 [3]) [%] | Structure (SMILES) |
| --- | --- | --- | --- |
| 265 | 180 | 35 to 90 | O=C1CCC(N2C(=O)c3cc(F)c(N4CCN(Cc5cccc(S(=O)(=O)N6CC[C@H](Nc7ncc8ccc(=O)n(C9CCCC9)c8n7)[C@H](F)C6)c5)CC4)cc3C2=O)C(=O)N1 (stereo partly drawn) [Compound 63, 5-(4-(3-(((3R,4S)-4-((8-cyclopentyl-7-oxo-7,8-dihydropyrido[2,3-d]pyrimidin-2-yl)amino)-3-fluoropiperidin-1-yl)sulfonyl)benzyl)piperazin-1-yl)-2-(2,6-dioxopiperidin-3-yl)-6-fluoroiso-indoline-1,3-dione] |
| 152 | 259 | 35 to 90 | O=C1CCC(N2Cc3cc(N4CC5CC4CN5Cc4cccc(S(=O)(=O)N5CCC(Nc6ncc7ccc(=O)n(C8CCCC8)c7n6)CC5)c4)ccc3C2=O)C(=O)N1 (stereo not drawn) [Compound 53, 3-(5-(5-(3-((4-((8-cyclopentyl-7-oxo-7,8-dihydropyrido[2,3-d]pyrimidin-2-yl)amino)-piperidin-1-yl)sulfonyl)benzyl)-2,5-diazabicyclo-[2.2.1]heptan-2-yl)-1-oxoisoindolin-2-yl)-piperidine-2,6-dione] |
| 169 | 49.6 | 35 to 90 | O=C1CCC(N2Cc3cc(N4CCC5(CC4)CN(Cc4cccc(S(=O)(=O)N6CCC(Nc7ncc8ccc(=O)n(C9CCCC9)c8n7)CC6)c4)C5)ccc3C2=O)C(=O)N1 (stereo not drawn) [Compound 57, 3-(5-(2-(3-((4-((8-cyclopentyl-7-oxo-7,8-dihydro-pyrido[2,3-d]pyrimidin-2-yl)amino)piperidin-1-yl)sulfonyl)benzyl)-2,7-diazaspiro[3.5]nonan-7-yl)-1-oxoisoindolin-2-yl)piperidine-2,6-dione] |
| 180 | 48.2 | 35 to 90 | O=C1CCC(N2Cc3cc(N4CCC5(CCN(Cc6cccc(S(=O)(=O)N7CCC(Nc8ncc9ccc(=O)n(C%10CCCC%10)c9n8)CC7)c6)CC5)CC4)ccc3C2=O)C(=O)N1 (stereo not drawn) [Compound 59, 3-(5-(9-(3-((4-((8-cyclopentyl-7-oxo-7,8-dihydro-pyrido[2,3-d]pyrimidin-2-yl)amino)piperidin-1-yl)sulfonyl)benzyl)-3,9-diazaspiro[5.5]undecan-3-yl)-1-oxoisoindolin-2-yl)piperidine-2,6-dione] |
| 198 | 154 | 35 to 90 | O=C1CCC(N2Cc3cc(N4CC5CCC4CN5Cc4cccc(S(=O)(=O)N5CCC(Nc6ncc7ccc(=O)n(C8CCCC8)c7n6)CC5)c4)ccc3C2=O)C(=O)N1 (stereo not drawn) [Compound 51, 3-(5-(5-(3-((4-((8-cyclopentyl-7-oxo-7,8-dihydropyrido[2,3-d]pyrimidin-2-yl)amino)-piperidin-1-yl)sulfonyl)benzyl)-2,5-diazabicyclo[2.2.2]octan-2-yl)-1-oxoisoindolin-2-yl)piperidine-2,6-dione] |
| 64.5 | 30 | 35 to 90 | O=C1CCC(N2Cc3cc(N4CC5(CN(Cc6cccc(S(=O)(=O)N7CCC(Nc8ncc9ccc(=O)n(C%10CCCC%10)c9n8)CC7)c6)C5)C4)ccc3C2=O)C(=O)N1 (stereo not drawn) [Compound 60, 3-(5-(6-(3-((4-((8-cyclopentyl-7-oxo-7,8-dihydro-pyrido[2,3-d]pyrimidin-2-yl)amino)piperidin-1-yl)sulfonyl)benzyl)-2,6-diazaspiro[3.3]heptan-2-yl)-1-oxoisoindolin-2-yl)piperidine-2,6-dione] |
